Assay [1] deals with zymostenol accumulation in EpiSC-derived OPCs (EBP). Description: GC/MS-based sterol profiling (zymostenol accumulation). In kind it is cell-based. Conditions: Mus musculus, 24 hours, 8 doses from 0.15 nM to 333 nM, read-out: Zymostenol GCMS EC50. The procedure: (§1) To assess effects of treatments on OPCs, all treatments were assayed in two or more independent platings of epiblast stem cell-derived OPCs (EpiSC). EpiSC-derived OPCs were obtained using in vitro differentiation protocols and culture conditions described previously (Najm et al, 2011, Nature Methods). OPCs were expanded and frozen down in aliquots. OPCs were thawed into growth conditions for at least one passage before use in further assays.
Sterols were monitored using a modified Folch wash protocol (Hubler et al, 2018, Nature). EpiSC-derived OPCs were plated at 100,000 cells per well in PO- and laminin-coated 96-well plates in N2B27 media without growth factors. After 24 hours, cells were rinsed with saline and plates were frozen. Cholesterol-d7 standard was then added to each well before drying under nitrogen stream and derivatization with 55 μl of bis(trimethylsilyl) trifluoroacetamide. After derivatization, 2 μl were analyzed by gas chromatography/mass spectrometry using an Agilent 5973 Network Mass Selective Detector equipped with a 6890 gas chromatograph system and a HP-5MS capillary column (30 m×0.25 mm×[…]). Samples were analyzed in full scan mode using electron impact ionization; ion fragment peaks were integrated to calculate sterol abundance, and quantitation was relative to cholesterol-d7. The following ion fragments were used to quantitate each metabolite: cholesterol-d7 (465), FF-Mas (482), cholesterol (368), zymostenol (458), zymosterol (456), Desmosterol (456, 343), 7-dehydrocholesterol (456, 325), lanosterol (393), lathosterol (458), 14-dehydrozymostenol (456, 351). […] All standards were obtained from Avanti Polar Lipids unless otherwise indicated. Calibration curves were generated by injecting varying concentrations of sterol standards and maintaining a fixed amount of cholesterol-D7. For normalized zymostenol accumulation results, the total amount of zymostenol measured after drug treatment was divided by the total amount of zymostenol accumulated after 24 hr treatment with 100 nM positive control reference.

A further assay relates to EpiSC-derived OPCs. Description: In vitro phenotypic screening of OPCs (MBP high-content imaging). Format: cell-based. Conditions: Mus musculus, 72 h; percentage of MBP-positive oligodendrocytes, 3 days, 0.5 nM to 1000 nM; read-out: OPC EC50. Here is the method:
as §1
EpiSC-derived OPCs were grown and expanded in poly-L-ornithine (PO) and laminin-coated flasks in N2B27 media (DMEM/F12 (Gibco), N2-MAX (R&D Systems), B-27 (ThermoFisher), and GlutaMax (Gibco)) supplemented with FGF2 ([…], R&D systems, 233-FB-025) and PDGF-AA ([…], R&D systems, 233-AA-050) before harvesting for experiments. The cells were seeded onto poly-L-ornithine or poly-D-lysine coated CellCarrier Ultra plates (PerkinElmer) coated with laminin (Sigma, L2020) at a density of 150,000/cm^2 in N2B27 media without growth factors. For dose-response testing, a 1000× compound stock in dimethyl sulphoxide (DMSO) was added to assay plates, resulting in 8-point dose curves with final concentrations between 1000 nM and 0.5 nM. Positive controls and DMSO vehicle controls were included in each assay plate. Cells were incubated under standard conditions (37° C., 5% CO2) for 3 days and fixed with 4% paraformaldehyde (PFA) in phosphate buffered saline (PBS) for 20 min. Fixed plates were washed with PBS, permeabilized with 0.1% Triton X-100, and blocked with 10% donkey serum (v/v) in PBS for 40 min. Then, cells were labelled with MBP antibodies (Abcam, ab7349; 1:200) for 2 h at room temperature, washed with PBS, and stained with Alexa Fluor conjugated secondary antibodies (1:500) for 45 min. Nuclei were visualized by DAPI staining (Sigma; 1 μg/ml), followed by further PBS washes.
Cells and cell culture plates were imaged on the Operetta High Content Imaging and Analysis system (PerkinElmer). Analysis (PerkinElmer Harmony and Columbus software) began by identifying intact nuclei stained by DAPI. The peri-nuclear region of each cell was then cross-referenced with the […] (MBP) stain to identify oligodendrocyte nuclei, and from this the percentage of oligodendrocytes was calculated.

In assay [2] the target is T1, human emopamil binding protein and human 7-dehydrocholesterol reductase (hEBP-DHCR7) (Homo sapiens, UniProt Q15125).
T1 construct: expressed in transfected cells; host or cells: HEK 293 cells, transient transfection with 2 DNA constructs
T1 sequence (Q15125 whole entry): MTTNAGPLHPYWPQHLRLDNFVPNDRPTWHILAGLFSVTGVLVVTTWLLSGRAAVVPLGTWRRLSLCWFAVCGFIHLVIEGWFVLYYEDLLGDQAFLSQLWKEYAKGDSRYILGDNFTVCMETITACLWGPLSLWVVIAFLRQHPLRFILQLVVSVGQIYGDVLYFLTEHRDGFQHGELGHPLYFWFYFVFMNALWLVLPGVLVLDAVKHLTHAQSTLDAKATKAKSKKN
As to the kind of experiment: hEBP-DHCR7 radioligand filtration binding assay. The settings on record: membranes of HEK293 co-expressing hEBP and DHCR7; [3H] 2-thia-6-azaspiro[3.4]octane radioligand; 8 doses 0.06 to 5000 nM. The procedure: Membrane Preparation: human emopamil binding protein and human 7-dehydrocholesterol reductase co-expressing cells were generated by transient transfecting host human embryonic kidney (HEK) 293 cells with 2 DNA constructs containing each protein's coding sequence. Cells were suspension cultured at 37° C. with 5% CO2 in […] 293 Expression Medium (Thermofisher). Whole cell membrane was prepared by harvesting the cell pellet, adding cold membrane buffer (50 mM Tris, pH7.5, lx Roche COMPLETE EDTA-free protease inhibitor cocktail) 10 times volume of the cell pellets weight, lysing cell pellet on ice by using Dounce homogenizer, spinning at 200 g 4° C. for 15 min, collecting supernatant and spinning again at 25000 g 4° C. for 50 min, transferring pellet to Dounce homogenizer, re-suspending pellet by homogenizing in membrane buffer on ice to reach ˜25 mg/mL, then keeping whole cell membrane aliquots at −80° C.
Compounds were prepared in a 96-well U bottom plate using an Echo550 machine and 10 mM compound DMSO stock solution, followed by an 8-dose 5-fold serial dilutions protocol with final testing compound concentration ranging from 0.06 to 5000 nM, with DMSO back fill to 100 nL/well and n=2. […] The UniFilter-96 GF/B plates were pre-treated by adding 50 µl/well of 0.3% (v/v) PEI to UniFilter-96 GF/B plates. The plates were sealed and incubated at 4° C. for 3 hrs. Then, the plates were washed with ice-cold assay buffer 3 times. The radioligand binding assay was prepared by adding assay buffer diluted hEBP-DHCR7 membrane at 66.7 μg/ml×150 l/well into the 96-well compound plate to reach 10 μg membrane per well. Then, the assay buffer diluted [3H]—((S)-6-(2-Methyl-3-(6-(trifluoromethyl)pyridin-3-yl)propyl)-2-thia-6-azaspiro[3.4]octane 2,2-dioxide or (R)-6-(2-Methyl-3-(6-(trifluoromethyl)pyridin-3-yl)propyl)-2-thia-6-azaspiro[3.4]octane 2,2-dioxide) was added at 25 nM×50 l/well. Following this, the plate was centrifuged at 1000 rpm for 30 secs. The plate was then sealed and agitated at 600 rpm at 22° C. for 5 min, and then incubated at 22° C. for 3 hrs. The incubation was stopped by transferring the binding solution to the pre-treated UniFilter-96 GF/B plate, vacuum filtrated, and then washed four times with ice-cold assay buffer. Following this, the plates were dried at 37° C. for 45 min. The plates were then sealed at the bottom. 40 µl/well of scintillation cocktail was added to the plates. A MicroBeta2 microplate counter was then used to read the plate and analyze the data. For reference and test compounds, the results are expressed as % Inhibition, using the normalization equation: N=100−100×(U−C2)/(C1−C2), where U is the unknown value, C1 is the average of high controls, and C2 is the average value of low controls. The IC50 was determined by fitting percentage of inhibition as a function of compound concentrations with Hill equation using XLfit. Results are expressed as hEBP-DHCR7 Ki (uM) in Table 4. Ki was calculated as described above; * indicates isolated isomer or isomers, but that the stereochemistry has not been assigned.

SMILES strings stand for the structures.

What is called EC50 is the concentration that produces a half-maximal response. The Ki is the equilibrium dissociation constant of an inhibitor or competing ligand from its target.

As for `C[C@H](C(F)F)n1nc(C(F)(F)F)cc1[C@H]1[C@@H]2C[C@@H](N3CCC4(CC3)CS(=O)(=O)C4)C[C@@H]21` (racemic) [Compound 70*, 7-((1R,3S,5S,6r)-6-(1-((R)-1,1-difluoropropan-2-yl)-3-(trifluoromethyl)-1H-pyrazol-5-yl)bicyclo[3.1.0]hexan-3-yl)-2-thia-7-azaspiro[3.5]nonane 2,2-dioxide and 7-((1R,3R,5S,6r)-6-(1-((S)-1,1-difluoropropan-2-yl)-3-(trifluoromethyl)-1H-pyrazol-5-yl)bicyclo[3.1.0]hexan-3-yl)-2-thia-7-azaspiro[3.5]nonane 2,2-dioxide], the figures for the EC50 (in assay [1]; in the assay with EpiSC-derived OPCs) were 9.4 nM and 24 nM, respectively. In assay [2], this molecule registered a Ki of 55.3 nM.

In the case of `C[C@H](C(F)F)n1nc(C(F)(F)F)cc1[C@H]1[C@@H]2C[C@H](N3CCC4(CC3)CS(=O)(=O)C4)C[C@@H]21` (racemic) [Compound 71*, 7-((1R,3R,5S,6r)-6-(1-((R)-1,1-difluoropropan-2-yl)-3-(trifluoromethyl)-1H-pyrazol-5-yl)bicyclo[3.1.0]hexan-3-yl)-2-thia-7-azaspiro[3.5]nonane 2,2-dioxide and 7-((1R,3S,5S,6r)-6-(1-((S)-1,1-difluoropropan-2-yl)-3-(trifluoromethyl)-1H-pyrazol-5-yl)bicyclo[3.1.0]hexan-3-yl)-2-thia-7-azaspiro[3.5]nonane 2,2-dioxide], the EC50 was 17 nM in assay [1] and 76 nM in the assay on EpiSC-derived OPCs. In addition, in assay [2], the affinity corresponds to a Ki of 17.8 nM.

`CC(C)n1nc(-c2cccc(C(F)(F)F)c2)cc1[C@H]1[C@@H]2C[C@H](N3CCC4(C3)CS(=O)(=O)C4)C[C@@H]21` (single isomer, unassigned) [Compound 1]: the results for the EC50 (in assay [1]; with EpiSC-derived OPCs) were 1.2 nM and 1.3 nM, respectively. The Ki in assay [2] came out at 13.1 nM.

As to `CC(C)n1nc(-c2cncc(C(F)(F)F)c2)cc1[C@H]1[C@@H]2C[C@@H](N3CCC4(C3)CS(=O)(=O)C4)C[C@@H]21` (single isomer, unassigned) [Compound 3], the values for the EC50 (in assay [1]; with EpiSC-derived OPCs) were 3.9 nM and 34 nM, respectively. In assay [2], the inhibition constant Ki was 16.2 nM.

In the case of `CC(C)n1nc(-c2cncc(C(F)(F)F)c2)cc1[C@H]1[C@@H]2C[C@@H](N3CC[C@@]4(CCS(=O)(=O)C4)C3)C[C@@H]21` (single isomer, unassigned) [Compound 7*], the EC50 in assay [1] amounted to 8.9 nM; in the assay on EpiSC-derived OPCs, 37 nM. The Ki in assay [2] was determined as 17.3 nM.

In the case of `CC(C)n1nc(-c2cncc(C(F)(F)F)c2)cc1[C@H]1[C@@H]2C[C@@H](N3CC[C@]4(CCS(=O)(=O)C4)C3)C[C@@H]21` (single isomer, unassigned) [Compound 8*], the EC50 was 3.6 nM in assay [1] and 2.5 nM in the assay on EpiSC-derived OPCs. Also, affinity in assay [2] was put at a Ki of 18.1 nM.

As to `CC(C)n1nc(-c2cncc(C(F)(F)F)c2)cc1[C@H]1[C@@H]2C[C@H](N3CC[C@]4(CCS(=O)(=O)C4)C3)C[C@@H]21` (single isomer, unassigned) [Compound 10*], the EC50 in assay [1] came to 4.8 nM; with EpiSC-derived OPCs, 13 nM. Moreover, the Ki in assay [2] was found to be 19.9 nM.

With `CC(C)n1nc(-c2ccc(C(F)(F)F)nc2)cc1[C@H]1[C@@H]2C[C@@H](N3CCC4(C3)CS(=O)(=O)C4)C[C@@H]21` (single isomer, unassigned) [Compound 13], the concentration for a half-maximal effect (EC50) in assay [1] was found to be 6.5 nM; in the assay on EpiSC-derived OPCs it was 17 nM. In addition, in assay [2], the Ki amounted to 37.1 nM.

For `CC(C)(C)n1nc(C(F)(F)F)cc1[C@H]1[C@@H]2C[C@@H](N3CCC4(CC3)CS(=O)(=O)C4)C[C@@H]21` (single isomer, unassigned) [Compound 55], the results for the EC50 (in assay [1]; with EpiSC-derived OPCs) were 3 nM and 3.3 nM, respectively.

Regarding `CC(C)n1nc(C(F)(F)F)cc1[C@H]1[C@@H]2C[C@@H](N3CCC[C@@]4(CCS(=O)(=O)C4)C3)C[C@@H]21` (single isomer, unassigned) [Compound 92*], the EC50 in assay [1] amounted to 45.1 nM; in the assay on EpiSC-derived OPCs, 58.4 nM.

On to `CC(C)(C)n1nc(C(F)(F)F)cc1[C@H]1[C@@H]2C[C@H](N3CCC4(CC3)CS(=O)(=O)C4)C[C@@H]21` [Compound 56, 7-((1R,3r,5S,6r)-6-(1-(tert-butyl)-3-(trifluoromethyl)-1H-pyrazol-5-yl)bicyclo[3.1.0]hexan-3-yl)-2-thia-7-azaspiro[3.5]nonane 2,2-dioxide], for which the EC50 in assay [1] was found to be 5.7 nM; in the assay on EpiSC-derived OPCs, 19 nM.

For the molecule `CCn1nc(-c2ccccn2)cc1[C@H]1[C@@H]2C[C@@H](N3CCC4(C3)CS(=O)(=O)C4)C[C@@H]21` [Compound 72, 6-((1R,3s,5S,6r)-6-(1-Ethyl-3-(pyridin-2-yl)-1H-pyrazol-5-yl)bicyclo[3.1.0]hexan-3-yl)-2-thia-6-azaspiro[3.4]octane 2,2-dioxide], in assay [1], the EC50 came to 47 nM. Further, the Ki in assay [2] amounted to 303 nM.

Consider `CC(C)n1nc(-c2cccc(C(F)(F)F)c2)nc1[C@H]1[C@@H]2C[C@H](N3CCC4(CC3)CS(=O)(=O)C4)C[C@@H]21` [Compound 74, 7-((1R,3r,5S,6r)-6-(1-isopropyl-3-(3-(trifluoromethyl)phenyl)-1H-1,2,4-triazol-5-yl)bicyclo[3.1.0]hexan-3-yl)-2-thia-7-azaspiro[3.5]nonane 2,2-dioxide], for which the EC50 was 3.9 nM in assay [1] and 13 nM with EpiSC-derived OPCs.

The values are drawn from patent US20240391930A1, “SPIROCYCLIC BICYCLIC MODULATORS OF CHOLESTEROL BIOSYNTHESIS AND THEIR USE FOR PROMOTING REMYELINATION” (GENENTECH, INC., priority 2021, published 2024).
